Laboratory results as given in patent US20140357641A1, “IP receptor agonist heterocyclic compounds” (NOVARTIS AG, priority 2012, published 2014).

target: T1, IP receptor (Homo sapiens, UniProt P43119); assay: cAMP accumulation in CHO cells stably expressing the IP receptor (CHO-IP), Perkin Elmer AlphaScreen assay; assay type: cell-based; conditions: agonist activity, 1 hour at room temperature
T1 construct: expressed in transfected cells
Method: Activity of compounds at the IP receptor (IP receptor) is assessed by measuring cAMP accumulation in CHO cells stably expressing the IP receptor (CHO-IP) using the Perkin Elmer AlphaScreen assay. This technology measures the endogenous production of cAMP, in a non-radioactive luminescence proximity homogenous assay. A biological reaction occurs between streptavidin coated donor beads, biotinylated cAMP and anti-cAMP acceptor beads, bringing the donor and acceptor beads close enough together so that upon excitation a fluorescence signal is produced. On production of endogenous cAMP, competition between the biotinylated cAMP and cellular-derived cAMP causes a reduction in the fluorescent signal. The reduction in signal is proportional to the amount of cAMP being produced, thus it is possible to quantify the amount of cAMP being produced on stimulation with agonist.
Test and reference compounds are prepared at 100× [final] in 100% DMSO, and diluted 1:3 using a Biomek Fx (Beckman Coulter). This is followed by an intermediate dilution to give 5× [final] in assay buffer (HBSS containing 5 mM HEPES, 0.1% (w/v) BSA). 5 μL of 5× [final] test compounds, reference compounds and buffer/DMSO control are then transferred to a 384-well white OptiPlate, containing 20 μL CHO-IP cell suspension (15,000 cells/well, prepared from frozen), and plate is incubated at room temperature for 1 hour. A cAMP standard curve is constructed for each experiment (concentration range of 10000 nM to 0.001 nM, in assay buffer) and 25 μL of each concentration added to the last two columns of the assay plate. The incubation is terminated by the addition of lysis buffer (dH2O; 0.3% (v v^−1) Tween-20) containing 20 units mL^−1 streptavidin coated donor beads and biotinylated cAMP (pre-incubated for 30 minutes) and 20 units mL^−1 anti-cAMP acceptor beads, which are added to the lysis buffer just before addition to the assay plate. The assay plate is then incubated at room temperature in the dark, for 60 minutes with gentle shaking, and read on the Envision plate reader (Perkin Elmer).
The raw data of the reference compounds, test compounds and controls are converted into cAMP concentrations, using the cAMP standard curve, in GraphPadPrism (GraphPad Software Inc). EC50 as well as maximal values of the agonist curves are determined using a 4-parameter logistic equation. The % maximum response values of all test compounds are determined using the top of the treprostinil concentration-response curve.

T1 sequence (P43119 whole entry): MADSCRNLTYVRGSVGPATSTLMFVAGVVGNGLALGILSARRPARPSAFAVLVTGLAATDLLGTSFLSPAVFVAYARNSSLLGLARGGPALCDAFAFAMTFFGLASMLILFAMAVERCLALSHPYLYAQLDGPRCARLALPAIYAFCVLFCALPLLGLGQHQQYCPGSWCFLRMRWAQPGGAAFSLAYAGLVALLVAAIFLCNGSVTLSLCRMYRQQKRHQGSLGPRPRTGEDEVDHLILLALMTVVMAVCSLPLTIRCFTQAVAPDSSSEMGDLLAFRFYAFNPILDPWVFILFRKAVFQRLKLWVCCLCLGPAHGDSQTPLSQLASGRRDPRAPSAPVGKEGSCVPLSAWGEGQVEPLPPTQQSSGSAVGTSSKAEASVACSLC

Structure (SMILES)	EC50
Cc1ccc(-c2nc3c(nc2-c2ccc(C)cc2)N(CCCCCCc2noc(=O)[nH]2)CCC3)cc1 [Example 6, 3-(6-(2,3-Di-p-tolyl-7,8-dihydropyrido[2,3-b]pyrazin-5(6H)-yl)hexyl)-1,2,4-oxadiazol-5(4H)-one]	28.3 nM
Cc1ccc(-c2nc3c(nc2-c2ccc(C)cc2)N(CCCCCC2=C(O)CCC2=O)CCC3)cc1 [Example 3, 2-(5-(2,3-Di-p-tolyl-7,8-dihydropyrido[2,3-b]pyrazin-5(6H)-yl)pentyl)-3-hydroxycyclopent-2-enone]	7.68 nM
Cc1ccc(-c2nc3c(nc2-c2ccc(C)cc2)N(CCCCC2SC(=O)NC2=O)CCC3)cc1 (racemic) [Example 1, rac-5-(4-(2,3-Di-p-tolyl-7,8-dihydropyrido[2,3-b]pyrazin-5(6H)-yl)butyl)thiazolidine-2,4-dione]	8.91 nM
Cc1ccc(-c2nc3c(nc2-c2ccc(C)cc2)N(CCCCc2noc(=O)[nH]2)CCC3)cc1 [Example 6.2, 3-(4-(2,3-Di-p-tolyl-7,8-dihydropyrido[2,3-b]pyrazin-5(6H)-yl)butyl)-1,2,4-oxadiazol-5(4H)-one]	14.7 nM
Cc1ccc(-c2nc3c(nc2-c2ccc(C)cc2)N(CCCC/C=C2/SC(=O)NC2=O)CCC3)cc1 [Example 4, 5-(5-(2,3-Ddi-p-tolyl-7,8-dihydropyrido[2,3-b]pyrazin-5(6H)-yl)pentylidene)thiazolidine-2,4-dione]	2 nM
Cc1ccc(-c2nc3c(nc2-c2ccc(C)cc2)N(CCCCC2CC(=O)NO2)CCC3)cc1 (centres unmarked) [Example 7, 5-(4-(2,3-Di-p-tolyl-7,8-dihydropyrido[2,3-b]pyrazin-5(6H)-yl)butyl)isoxazolidin-3-one]	2.86 nM
Cc1ccc(-c2nc3c(nc2-c2ccc(C)cc2)N(CCCCCc2noc(=O)[nH]2)CCC3)cc1 [Example 6.1, 3-(5-(2,3-Di-p-tolyl-7,8-dihydropyrido[2,3-b]pyrazin-5(6H)-yl)pentyl)-1,2,4-oxadiazol-5(4H)-one]	15.3 nM
Cc1ccc(-c2nc3c(nc2-c2ccc(C)cc2)N(CCCCC2=C(O)CCC2=O)CCC3)cc1 [Example 5, 2-(4-(2,3-Ddi-p-tolyl-7,8-dihydropyrido[2,3-b]pyrazin-5(6H)-yl)butyl)-3-hydroxycyclopent-2-enone]	165 nM
Cc1ccc(-c2nc3c(nc2-c2ccc(C)cc2)N(CCCCC2SC(=O)NC2=O)CCC3)cc1 (single isomer, unassigned) [1(a), (S)-5-(4-(2,3-di-p-tolyl-7,8-dihydropyrido[2,3-b]pyrazin-5(6H)-yl)butyl)thiazolidine-2,4-dione or (R)-5-(4-(2,3-di-p-tolyl-7,8-dihydropyrido[2,3-b]pyrazin-5(6H)-yl)butyl)thiazolidine-2,4-dione]	3.71 nM
Cc1ccc(-c2nc3c(nc2-c2ccc(C)cc2)N(CCCCC2SC(=O)NC2=O)CCC3)cc1 (single isomer, unassigned) [1(b), (S)-5-(4-(2,3-di-p-tolyl-7,8-dihydropyrido[2,3-b]pyrazin-5(6H)-yl)butyl)thiazolidine-2,4-dione or (R)-5-(4-(2,3-di-p-tolyl-7,8-dihydropyrido[2,3-b]pyrazin-5(6H)-yl)butyl)thiazolidine-2,4-dione]	12 nM
Cc1ccc(-c2nc3c(nc2-c2ccc(C)cc2)N(CCCCc2cc(O)no2)CCC3)cc1 [Example 8, 5-(4-(2,3-Di-p-tolyl-7,8-dihydropyrido[2,3-b]pyrazin-5(6H)-yl)butyl)isoxazol-3-ol]	34.3 nM
